Data reported in patent US5260340A, “Prevention and amelioration of acetaminophen toxicity with beta-carotene” (priority 1992, dated 1993).
Where two headings read alike, the source gives them in different places.

Experiments:
mice = assay: Feeding of mice following IP injection of a lethal dose of acetaminophen; format: in vivo
liver = conditions: cited from earlier work
[1] = cited from earlier work
[2] = cited from earlier work; remark: listed apart in the source
acetaminophen toxicity [3] = assay: Prevention of acetaminophen toxicity, pre-administration of beta-carotene in the diet: survival after IP acetaminophen 800 mg/kg; format: in vivo, 129/ReJ mice; conditions: for mice alive seventy-two hours after injection: 800 mg/kg acetaminophen IP; for Survival 72 Hours After Ingestion (%) / Survival 72 Hours After Ingestion, Survivors/Sample: acetaminophen 800 mg/kg IP
Procedure: (§1) The total amount of beta-carotene consumed by mice in each experiment was computed using the estimates that a 25 gram mouse will consume […] of food and 25 ml/day of water, under normal conditions.
Nine 129/ReJ mice, (The Jackson Laboratory-Bar Harbor, Me.) were pre-fed a diet of Modified HLR 341 with 10 percent of 10% beta-carotene beadlets, 1.6 mg/kg of vitamin K, and 4,000 IU/kg of vitamin A (Dyets, Inc.--Bethlehem, Pa.) for a period of five months. Each mouse ingested about 7.5 grams of beta-carotene.
Each mouse then received an intraperitoneal (IP) injection of 800 mg/kg of acetaminophen (Fisher Scientific-Pittsburgh, Pa.) dissolved in 20% Tween 80 (Sigma Chemical Company -- St. Louis, Mo.) in saline. […]

acetaminophen toxicity [4] = assay: Prevention of acetaminophen toxicity, simultaneous administration (Example 5): survival; format: in vivo, DBA/2J mice; conditions: about 20 mg total beta-carotene per mouse by hour 24; 1% acetaminophen in water, 500 mg/kg IP at hours 24 and 30
Procedure: as §1
Four DBA/2J mice (The Jackson Laboratory) were weighed. Food was removed, and the mice were given drinking bottles containing a one percent aqueous solution of acetaminophen (Fisher Scientific) and 60 mg of beta-carotene per 100 ml ("Twinlab"--Twin Laboratories--Ronkonkoma, N.Y.). After twenty-two hours, the mice were given a Modified HLR 341 diet having 10 percent of 10% beta-carotene beadlets, 10% safflower oil food pellets, 6% lard, 1.6 mg/kg of vitamin K, and 4000 IU/kg of vitamin A (Dyets, Inc.). Each mouse ingested about 20 mg total beta-carotene from the water and food by the twenty-fourth hour.
At the twenty-fourth and thirtieth hours, all of the mice received an IP injection of 500 mg/kg of acetaminophen dissolved in 20% Tween 80 (Sigma Chemical Co.) in saline. At the forty-eighth hour, all of the mice were weighed, and the drinking bottles were filled with pure water.

acetaminophen toxicity [5] = assay: Prevention of acetaminophen toxicity, simultaneous administration (Example 6): survival and body weight; format: in vivo, 129ReJ mice; conditions: beta-carotene diet
Procedure: as §1
Ten 129ReJ mice (The Jackson Laboratory) were starved for twelve hours during which time they lost 4% of their original weight. The mice were then given drinking bottles containing a 0.1% aqueous solution of acetaminophen (Fisher Scientific). The mice were given a Modified HLR 341 diet with 10 percent of 10% beta-carotene beadlets, 10% safflower oil, 6% lard, 1.6 mg/kg of vitamin K, and 4000 IU/kg of vitamin A (Dyets, Inc.). The food regimen was continued throughout the remainder of the experiment.
At the sixtieth hour, all of the mice received an IP injection of 300 mg/kg of acetaminophen, and the drinking bottles were filled with pure water.

acetaminophen toxicity [6] = assay: Antidotal treatment of acetaminophen toxicity (Example 7): survival and weight restoration; format: in vivo, 129/ReJ mice
Procedure: as §1
(§2) The design of this experiment was predicated on the clinical time sequence involved in, or associated with, acetaminophen overdose and toxicity, and the biological response of mice to lethal injections of this drug. When a human ingests a toxic, potentially lethal dose of acetaminophen, few if any, clinical signs manifest during the first forty-eight hours. The patient remains alert and can take food voluntarily or by a nasal gastric tube. […] Because the time course of human toxicity implies that a patient could orally ingest an antidote such as beta-carotene within the forty-eight hour period immediately following an overdose, it was proposed that a comparative animal model would be feeding subjects with a beta-carotene diet for forty-eight hours prior to the administration of a known lethal dose of acetaminophen.
Eight 129/ReJ mice (The Jackson Laboratory) were wholly or partially starved for seventy-two hours to enhance their appetite. Mean weight loss during this period was 13%. […] Each mouse ingested about 0.1 gram of beta-carotene by the forty-eighth hour. […]

acetaminophen toxicity [7] = assay: Antidotal treatment of acetaminophen toxicity (Example 8): survival and weight regain; format: in vivo, DBA/2J mice
Procedure: as §1, §2
Twelve DBA/2J mice (The Jackson Laboratory) were weighed and starved for seventy-two hours. The mean weight loss during this time was 27%. The mice received a Modified HLR 341 diet with 10 percent of 10% beta-carotene beadlets, 10% safflower oil, 6% lard, 1.6 mg/kg of vitamin K, and […] of vitamin A (Dyets, Inc.). The mice regained 86% of their original weight. Each mouse ingested about 0.1 gram of beta-carotene by the forty-eighth hour.
After forty-eight hours on the experimental diet, the mice received an IP injection of 800 mg/kg of acetaminophen (Fisher Scientific) dissolved in 20% Tween 80 (Sigma Chemical Co.) in saline.
The mice were reweighed, and a second injection of 600 mg/kg of acetaminophen dissolved in 20% Tween 80 in saline was given to each mouse. By seventy hours after the first injection, 92% of the mice were alive.

[8] = test system: aflatoxin-induced liver toxicity; conditions: chickens; simultaneous administration; cited from earlier work
[9] = test system: toxic side effects of antibiotics; conditions: plants; cited from earlier work
toxicity due to aspirin = conditions: in vivo; cited from earlier work
cytochrome P450 = conditions: fourteen days of dietary beta-carotene supplement; mouse liver homogenates; cited from earlier work
[10] = test system: Kupffer cells of the liver; conditions: in vivo; cited from earlier work
[11] = human; not yet determined; cited from earlier work
[12] = mammals; cited from earlier work
[13] = test system: duodenal ulcers and stress ulcers; conditions: rats fed 3-, 4-diaminotoluene; cited from earlier work
[14] = acetaminophen in water, 600 mg/kg IP after hour 48 and 300 mg/kg IP at hour 60
[15] = forty-eight hours on beta-carotene diet after starvation, before acetaminophen

CC(=O)Nc1ccc(O)cc1 [acetaminophen]
feeding following IP injection of a lethal dose (mice): cease to feed | time of hepatic failure after ingestion (liver; acute acetaminophen toxicity): three to five | ingestion at which mortality is significantly higher (liver; acute ingestion): exceeds 25 grams | toxic dosage (liver; adult): greater than 10 grams | toxic dosage (liver; child): ≥ 140 milligrams per kilogram | dosage that has resulted in chronic liver disease (liver; long term dosages, as low as): three | half-life ([1]; normal dosages, normal patient): about 21/2 | half-life ([1]; severe hepatocellular injury): over 4 hours | solubility in water [2]: soluble in water

CC1=C(/C=C/C(C)=C/C=C/C(C)=C/C=C/C=C(C)/C=C/C=C(C)/C=C/C2=C(C)CCCC2(C)C)C(C)(C)CCC1 [beta-carotene]
survival rate compared with Comparative Examples 1A*-4A* (acetaminophen toxicity [3]; administration before challenge with toxic amounts of acetaminophen): increases the survival rate significantly | mice alive seventy-two hours after injection (acetaminophen toxicity [3]; nine mice, pre-fed five months (about 7.5 grams beta-carotene)): all mice were alive | mice alive seventy-two hours after injection (acetaminophen toxicity [3]; nineteen mice, pre-fed seven days (about 0.35 grams beta-carotene)): five of the mice were alive | Survival 72 Hours After Ingestion (%) (acetaminophen toxicity [3]; pre-feeding 5 Months): 100% | Survival 72 Hours After Ingestion, Survivors/Sample (acetaminophen toxicity [3]; pre-feeding 5 Months): 9/9 | Survival 72 Hours After Ingestion (%) (acetaminophen toxicity [3]; pre-feeding 5 Weeks): 65% | Survival 72 Hours After Ingestion, Survivors/Sample (acetaminophen toxicity [3]; pre-feeding 5 Weeks): 13/20 | Survival 72 Hours After Ingestion (%) (acetaminophen toxicity [3]; pre-feeding 7 Days): 26% | Survival 72 Hours After Ingestion, Survivors/Sample (acetaminophen toxicity [3]; pre-feeding 7 Days): 5/19 | Survival 72 Hours After Ingestion (%) (acetaminophen toxicity [3]; pre-feeding 23 Days): 100% | Survival 72 Hours After Ingestion, Survivors/Sample (acetaminophen toxicity [3]; pre-feeding 23 Days): 20/20 | mice alive seventy-two hours after injection (acetaminophen toxicity [3]; twenty mice, pre-fed five weeks (about 1.75 grams beta-carotene)): thirteen of the mice were alive | mice alive seventy-two hours after injection (acetaminophen toxicity [3]; twenty mice, pre-fed twenty-three days (about 1.15 grams beta-carotene)): twenty of the mice were alive | mice alive by the seventy-second hour (acetaminophen toxicity [4]): 75% | body weight after twenty-four hours (acetaminophen toxicity [5]; 0.1% aqueous acetaminophen): regained or increased their original weight | body weight after the forty-eighth hour (acetaminophen toxicity [5]; 0.5% aqueous acetaminophen): maintenance of the mice's original weight | animals alive at the seventy-second hour (acetaminophen toxicity [5]; [14]): all of the animals were alive | mice alive at the one hundred fiftieth hour (acetaminophen toxicity [5]; [14]): 90% | body weight, of original weights, at the one hundred fiftieth hour (acetaminophen toxicity [5]; acetaminophen in water, 600 and 300 mg/kg IP): 93% | mice alive seventy-two hours after injection (acetaminophen toxicity [6]; beta-carotene diet for forty-eight hours (about 0.1 gram per mouse), 800 mg/kg acetaminophen IP): 63% | restoration of original weight (acetaminophen toxicity [6]; [15]): 98% | mice alive by seventy hours after the first injection (acetaminophen toxicity [7]; about 0.1 gram beta-carotene, acetaminophen 800 mg/kg IP then 600 mg/kg): 92% | regain of original weight (acetaminophen toxicity [7]; [15]): 86% | mice that had died by thirty-six hours after the injection (acetaminophen toxicity [7]; twelve mice, about 0.1 gram beta-carotene, 800 mg/kg acetaminophen IP): one mouse had died | aflatoxin-induced liver toxicity [8]: reduction of aflatoxin-induced liver toxicity | toxic side effects of antibiotics [9]: prevent the toxic side effects of antibiotics | adverse side effects and toxicity due to aspirin (toxicity due to aspirin): reduced adverse side effects and toxicity due to aspirin | cytochrome P450 (cytochrome P450): reduced cytochrome P450 | deposition in liver cells [10]: deposited in, and remains sequestered in, only the Kupffer cells of the liver | safe upper limit (believed) [11]: at least 1,000 mg/day | oxidative cleavage at the central double bond [12]: readily undergoes oxidative cleavage at the central double bond

vitamin A
adverse side effects and toxicity due to aspirin (toxicity due to aspirin): reduced adverse side effects and toxicity due to aspirin | duodenal ulcers and stress ulcers [13]: could prevent duodenal ulcers and stress ulcers
